Where a name gives a salt, the structure may show the parent alone.
Tested on: MLO-Y4 osteocytes
Assay: High-throughput drug screening of primary cilia length and incidence
Assay type: cell-based
Conditions: 10 μM, 16 hours; for Average Incidence SD Away / Average Length SD Away: triplicate, normalized to vehicle control, standard deviation away from the population average
Protocol: MLO-Y4 osteocytes were maintained on collagen I-coated dishes in MEMα (Life_Technologies) supplemented with 5% fetal bovine serum (FBS), 5% calf serum (CS), and 1% penicillin/streptomycin (P/S) at 37° C. and 5% CO2. Osteocytes were then seeded onto 384-well collagen-coated plates for 72 hours before fixation. […] These libraries include Tocris, Sigma LOPAC, Selleck Chemical, Prestwick, and Spectrum commercially available compound libraries. All cell seeding and plate handling was performed with the Perkin Elmer cell:explorer workstation.
Cells were fixed in 4% paraformaldehyde and permeabilized with 0.1% Triton-X 100 (Sigma). 10% goat serum (vendor) was used for blocking. Cilia were stained using a monoclonal antibody against acetylated α-tubulin (1:20) from a C3B9 hybridoma cell line, and visualized with A F488 (1:1000, ThermoFisher). Nuclei were visualized with Hoechst. Cells were imaged using a GE INCell 2000 high-throughput imager at 40× magnification. 4 fields of view were taken per well.
Each pair of nuclei and cilia images was first analyzed individually, then the entire population was examined to evaluate each compound's effect on cilia length and incidence. A custom MATLAB script was developed to perform all image analysis. This script first utilizes an enhanced implementation of a watershed transform, which is a segmentation tool which enables detection of similarly shaped overlapping particles in noisy images by the procedural whittling down of pixels found close to the edge of such particles. The augmentation of the algorithm incorporates thresholding for noise removal based on signal intensity and object size, nuclei dilation to exclude non-cellular artifacts, as well as skeletonization of cilia to quantify length. The results of the analysis are number of nuclei, number of cilia, and average cilia length in each image.
Compounds were selected based on deviation from the population mean. Each well was normalized to vehicle control images on each plate, allowing the establishment of a normalized population mean. Hits were chosen based on compounds whose triplicate mean was furthest (based on standard deviation away) from the population mean. […] Compounds were classified based on mechanism of action.
To identify compounds that modulate primary cilia formation a high-throughput platform was developed to automate cell culture, staining, imaging, and analysis, as shown in schematic form in FIG. 18. […] Cells were cultured on 384-well plates, and treated with small molecules with known biologic activity, enabling classification of mechanisms of action. Drug treatment was applied for 16 hours at 10 μM concentration, performed in triplicate, before fixation and immunostaining of primary cilia. Cells were then imaged using the GE INCell 2000 High Content Analyzer, capturing 4 fields of view per well at 40× magnification. Additionally, each plate contains 8 wells of DMSO vehicle control.
A MATLAB script was developed to detect and analyze changes in ciliogenesis. […] A representative exemplary image (FIG. 19A) is cropped to better display features, scale bar represents 30 μm. A custom MATLAB script was used to identify nuclei and cilia for analysis (FIG. 19B). […] Objects are further filtered based on size and signal intensity.
Cilia length and incidence for each field of view were normalized to vehicle control on that individual plate. This allowed development of a normalized population average and standard deviation. […] To control for toxic effects only small molecules with at least 40% viability, based on number of nuclei versus control, were selected as hits. Furthermore, compounds repeated between multiple libraries eliciting the same effect on cilia length or incidence were excluded, such that only one of the repeated compounds was selected as a hit.

Structure (SMILES)	Average Incidence SD Away [SD]	Average Length SD Away [SD]	classification as hit increasing cilia length in the screen (hit = 1.5 standard deviation above population average, at least 40% viability)
OCCN(CCO)c1nc(N2CCCCC2)c2nc(N(CCO)CCO)nc(N3CCCCC3)c2n1 [Dipyridamole (Persantine), Dipyridamole]	2.055		
CC(=O)O[C@@]12CO[C@@H]1C[C@H](O)[C@@]1(C)C(=O)[C@H](O)C3=C(C)[C@@H](OC(=O)[C@H](O)[C@@H](NC(=O)OC(C)(C)C)c4ccccc4)C[C@@](O)([C@@H](OC(=O)c4ccccc4)[C@H]21)C3(C)C [Docetaxel]		3.416	
CCN[C@H]1C[C@H](C)S(=O)(=O)c2sc(S(N)(=O)=O)cc21 [Dorzolamide HCL]		2.205	
Cc1cc(Cl)ccc1OCCCC(=O)NO [Droxinostat]	2.26	2.91	
C[C@]12CC[C@@H]3c4ccc(O)cc4CC[C@H]3[C@@H]1CC[C@@H]2OC(=O)CCC1CCCC1 [ESTRADIOL CYPIONATE]		1.56	
CC1=NN(c2ccccc2)C(=O)C1 [Edaravone (MCI-186), Edaravone]	1.537		
CCOc1ccc2nc3cc(N)ccc3c(N)c2c1 [Ethacridine lactate monohydrate]		2.114	
CC(C)OC(=O)C(C)(C)Oc1ccc(C(=O)c2ccc(Cl)cc2)cc1 [Fenofibrate (Tricor Trilipix), Fenofibrate]	2.95		
CC(C(=O)[O-])c1cccc(Oc2ccccc2)c1.CC(C(=O)[O-])c1cccc(Oc2ccccc2)c1.[Ca+2] (centres unmarked) [Fenoprofen calcium]	3.368		
O=c1[nH]c(=O)n([C@H]2C[C@H](O)[C@@H](CO)O2)cc1F [Floxuridine]	1.58	1.672	
CC(C)C(=O)Nc1ccc([N+](=O)[O-])c(C(F)(F)F)c1 [Flutamide (Eulexin), Flutamide]	2.035		
CN(CCOc1ccc(C[C@H](Nc2ccccc2C(=O)c2ccccc2)C(=O)O)cc1)c1ccccn1 [GW 1929]		1.65	
COC(=O)C1=CO[C@@H](O[C@@H]2O[C@H](CO)[C@@H](O)[C@H](O)[C@H]2O)[C@@H]2C(CO)=CC[C@H]12 [Geniposide]	4.335		
O=c1c(-c2ccc(O)cc2)coc2cc(O)cc(O)c12 [Genistein]	1.524		
CC1C(=O)OC2C(O)C34C5CC(C(C)(C)C)C36C(OC(=O)C6O)OC4(C(=O)O5)C12O (centres unmarked) [Ginkgolide B]		1.581	
CC1=NCCc2c1[nH]c1cc(O)ccc21.Cl [HARMALOL HYDROCHLORIDE]		1.629	
CC(=O)O[C@H]1CC[C@@]2(C)[C@@H](CC[C@@H]3[C@@H]2CC(=O)[C@]2(C)[C@@H]4[C@H](C[C@@H]32)O[C@]2(CC[C@@H](C)CO2)[C@H]4C)C1 [HECOGENIN ACETATE]		2.21	
CC[n+]1c(-c2ccccc2)c2cc(N)ccc2c2ccc(N)cc21 [HOMIDIUM BROMIDE]		1.694	
CCN(CC)CCNc1ccc(CO)c2sc3ccccc3c(=O)c12 [HYCANTHONE]		2.896	
NC(=O)NO [Hydroxyurea (Cytodrox), Hydroxyurea]	1.988		
COc1cc(OC)c(C=C2C(O)=Nc3ccccc32)c(OC)c1 [IC 261]		1.651	
CCC(C)n1ncn(-c2ccc(N3CCN(c4ccc(OCC5COC(Cn6cncn6)(c6ccc(Cl)cc6Cl)O5)cc4)CC3)cc2)c1=O (centres unmarked) [ITRACONAZOLE]		2.154	
O=c1[nH]c(=O)n([C@H]2C[C@H](O)[C@@H](CO)O2)cc1I [Idoxuridin]	1.798		
COc1cc(C(C)=O)ccc1OCCCN1CCC(c2noc3cc(F)ccc23)CC1 [Iloperidone (Fanapt), Iloperidone]	1.775		
O=C1Nc2ccccc2/C1=C1/Nc2ccccc2/C1=N\O [Indirubin-3′-oxime]		2.475	
CCc1c2c(nc3ccc(OC(=O)N4CCC(N5CCCCC5)CC4)cc13)-c1cc3c(c(=O)n1C2)COC(=O)[C@]3(O)CC [Irinotecan]	1.681	1.658	
Nc1nc(N)nc(-c2cc(Cl)ccc2Cl)n1 [Irsogladine]	1.543		

Structure (SMILES)	Average Incidence SD Away [SD]	Average Length SD Away [SD]	classification as hit increasing cilia length in the screen (hit = 1.5 standard deviation above population average, at least 40% viability)
CC(C)NCC(O)c1ccc(O)c(O)c1 (centres unmarked) [Isoprenaline hydrochloride]	1.623		
COc1cc2c(cc1OC)CC(=O)N(CCCN(C)C[C@H]1Cc3cc(OC)c(OC)cc31)CC2 [Ivabradine HCl (Procoralan), Ivabradine HCl]	1.611		
CC(=O)O[C@H]1C[C@@H](OC(C)=O)C(C)(C)[C@@H]2C[C@@H](OC(C)=O)[C@]3(C)[C@H](CC[C@@]4(C)[C@H](c5ccoc5)OC(=O)[C@H]5O[C@@]534)[C@@]12C [KHIVORIN]		1.723	
O=C1Cc2c([nH]c3ccc(Br)cc23)-c2ccccc2N1 [Kenpaullone]		3.28	
CC(=O)C(=Cc1ccccc1)CC(=O)O [LEVULINIC ACID 3-BENZYLIDENYL-]		2.3613	
c1ccc(-c2[nH]ncc2-c2ccnc3ccccc23)nc1 [LY 364947]	1.591		
O=C(C[S+]([O-])Cc1ccco1)NC/C=C\COc1cc(CN2CCCCC2)ccn1 (centres unmarked) [Lafutidine]	1.619		
C[C@@H]1CC(=O)NN=C1c1ccc(NN=C(C#N)C#N)cc1 [Levosimendan]	1.52		
CC1(C)Cc2c(-c3ccccc3)c(-c3ccc(Cl)cc3)c(CC(=O)O)n2C1 [Licofelone]	1.936		
O=NN(CCCl)C(=O)NC1CCCCC1 [Lomustine (CeeNU), Lomustine]	2.228		
O=C(O)c1nn(Cc2ccc(Cl)cc2Cl)c2ccccc12 [Lonidamine]		2.357	
CCOC(=O)N1CCC(=C2c3ccc(Cl)cc3CCc3cccnc32)CC1 [Loratidine]		2.261	
S=c1nc[nH]c2nc[nH]c12 [MERCAPTOPURINE]		1.722	
CON [METHOXYAMINE HYDROCHLORIDE]		1.91	
Oc1ccc(OCc2ccccc2)cc1 [MONOBENZONE]		1.914	
CC(=O)O[C@]1(C(C)=O)CC[C@H]2[C@@H]3C[C@H](C)C4=CC(=O)CC[C@]4(C)[C@H]3CC[C@@]21C [Medroxyprogesterone acetate]	2.659		
O=C([O-])c1ccccc1-c1c2cc(Br)c(=O)cc-2oc2[c]([Hg+])c([O-])c(Br)cc12.[Na+].[Na+].[OH-] [Merbromin]		5.067	
CN(Cc1cnc2nc(N)nc(N)c2n1)c1ccc(C(=O)N[C@@H](CCC(=O)O)C(=O)O)cc1 [Methotrexate]	2.424	3.097	listed as hits
COCCc1ccc(OCC(O)CNC(C)C)cc1 (centres unmarked) [Metoprolol tartrate]	1.601		
Cc1ncc([N+](=O)[O-])n1CCO [Metronidazole (Flagyl), Metronidazole]	2.092		
CN1CCN2c3ncccc3Cc3ccccc3C2C1 (centres unmarked) [Mirtazapine (Remeron Avanza), Mirtazapine]	1.681		
COc1c(C)c2c(c(O)c1C/C=C(\C)CCC(=O)OCCN1CCOCC1)C(=O)OC2 [Mycophenolate mofetil (CellCept), Mycophenolate mofetil]	1.654	1.579	
CC(C)(C)[N+]([O-])=Cc1ccc(S(=O)(=O)[O-])cc1S(=O)(=O)[O-].[Na+].[Na+] [NXY 059]	1.838		
Cc1cccc(C)c1NC(=O)CN1CCCC1=O [Nefiracetam (Translon), Nefiracetam]	1.552		
O=C(NCCO[N+](=O)[O-])c1cccnc1 [Nicorandil (Ikorel), Nicorandil]	1.556		
CCOC(=O)C1=C(C)NC(C)=C(C(=O)OC)C1c1cccc([N+](=O)[O-])c1 (centres unmarked) [Nitrendipine]	1.542		
